Here are results for 3 compounds from patent publication US9260440B2, “Fused tetra or penta-cyclic dihydrodiazepinocarbazolones as PARP inhibitors” (BeiGene, Ltd., priority 2011, dated 2016).

The test system of this experiment is PARP PARylation in HeLa cells. Put plainly: PARylation assay in HeLa cells. In kind it is cell-based. As to conditions: Homo sapiens, H2O2 200 μM induced DNA damage.

Each structure is given as a SMILES string.

On to `O=C1NN=C2CC(c3ccccc3)Cc3[nH]c4cccc1c4c32` (stereo not drawn) [Compound 5, 2-phenyl-2,3,5,10-tetrahydro-[1,2]diazepino[3,4,5,6-def]carbazol-6(1H)-one], for which the response was half-maximal at 10.1 nM (EC50).
`CN(C)c1ccc(C2CC3=NNC(=O)c4cc(F)cc5[nH]c(c3c45)C2)cc1` (stereo not drawn) [Compound 12, 2-(4-(dimethylamino)phenyl)-8-fluoro-2,3,5,10-tetrahydro-[1,2]diazepino[3,4,5,6-def]carbazol-6(1H)-one] yielded an EC50 of 26.6 nM.
With `N[C@@H](Cc1ccccc1)C(=O)N1CC2=NNC(=O)c3cccc4[nH]c(c2c34)C1` [Compound 64, (S)-2-(2-amino-3-phenylpropanoyl)-2,3,4,9-tetrahydro-2,4,9,10-tetraazacyclohepta[def]fluoren-8(1H)-one], the EC50 is 48 nM.
